Source: patent US9988430B2, “Stable GLP-1 based GLP-1/glucagon receptor co-agonists” (Novo Nordisk A/S, priority 2014, dated 2018)
*1 amine or outer side, *2 acyl side, *3 side chain or, on linkers, in order; H or OH if unused. Where a SMILES comes first, the peptide text is derived from it. Side-chain parts run from the residue outwards. [ ]: non-standard residue; d: D form. The star is where a group is joined. C18 diacid = O=C(O)CCCCCCCCCCCCCCCCC(=O)*; γGlu = O=C(O)[C@H](CCC(=O)[*:2])N[*:1]; Desaminohistidyl = O=C(CCc1c[nH]cn1)*; Ac4c = NC1(C(=O)O)CCC1; AEEA = NCCOCCOCC(=O)O

Assays:
[1] = biological target: T1, human GLP-1 receptor (Homo sapiens, UniProt P43220); experiment: Assay (I)(a): GLP-1 receptor potency, CRE luciferase reporter gene assay in BHK cells; type: cell-based; details: BHK cells expressing human GLP-1 receptor, read-out: EC50 GLP-1R
T1 construct: expressed in transfected cells; host or cells: membranes of BHK cells, parent line BHKTS13, clone FCW467-12A
T1 sequence (P43220 24-463): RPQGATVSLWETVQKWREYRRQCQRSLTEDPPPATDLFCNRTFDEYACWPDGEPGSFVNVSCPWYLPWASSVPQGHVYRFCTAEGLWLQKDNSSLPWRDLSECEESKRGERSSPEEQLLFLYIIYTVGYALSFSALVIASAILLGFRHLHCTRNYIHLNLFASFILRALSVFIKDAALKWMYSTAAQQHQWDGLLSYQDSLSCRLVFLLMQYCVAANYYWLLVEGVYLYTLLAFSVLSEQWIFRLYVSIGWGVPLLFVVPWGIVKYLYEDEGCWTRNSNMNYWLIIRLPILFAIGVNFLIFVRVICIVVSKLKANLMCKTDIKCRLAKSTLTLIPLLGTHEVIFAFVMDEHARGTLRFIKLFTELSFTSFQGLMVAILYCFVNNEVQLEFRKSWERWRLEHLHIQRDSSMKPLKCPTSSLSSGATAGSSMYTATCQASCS
Experimental: Assay (I): GLP-1 and Glucagon Receptor Potency The purpose of this example was to test the activity or potency, of the GLP-1 derivatives of the invention, in vitro. The in vitro potency is the measure of human GLP-1 receptor (GLP-1R) or glucagon receptor (glucagonR) activation, respectively, in a whole cell assay. In vitro potency was determined by measuring the cellular response of human GLP-1 or glucagon receptor activation, respectively, in a reporter gene assay. The assay was performed in a BHK cell line that stably expresses either the human GLP-1 receptor or the human glucagon receptor and comprises the DNA for the cAMP response element (CRE) coupled to a promoter and the gene for firefly luciferase (CRE luciferase). […] When assay incubation was completed, the luciferase substrate (luciferin) was added and the enzyme converted luciferin to oxyluciferin and produces bioluminescence. The luminescence was measured as the readout for the assay. (a) GLP-1 Receptor Activation The cells used in this assay (clone FCW467-12A/KZ10-1) were BHK cells with BHKTS13 as a parent cell line. The cells were derived from a clone (FCW467-12A) that expresses the human GLP-1 receptor and were established by further transfection with CRE luciferase to obtain the current clone. The cells were cultured at 5% CO2 in DMEM medium with 10% FBS, 1×GlutaMAX, 1 mg/ml G418, 240 nM MTX (methotrexate) and 1% pen/strep (penicillin/streptomycin). They were aliquoted and stored in liquid nitrogen. Before each assay, an aliquot was taken up and washed three times in PBS before being suspended at the desired concentration in assay medium. For 96-well plates the suspension was made to give a final concentration of 5×10EE3 cells/well. The following chemicals were used in the assay: Pluronic F-68 (10%) (Gibco 2404), Ovalbumin (Sigma A5503), DMEM w/o phenol red (Gibco 11880-028), 1 M Hepes (Gibco 15630), Glutamax 100× (Gibco 35050) and steadylite plus (PerkinElmer 6016757). Assay Medium consisted of DMEM w/o phenol red, 10 mM Hepes, 1×GlutaMAX, 2% Ovalbumin and 0.2% Pluronic F-68. Cell stocks were thawed in a 37° C. water bath. Cells were washed three times in PBS. The cells were counted and adjusted to 5×10EE3 cells/50 μl (1×10EE5 cells/ml) in Assay Medium. A 50 μl aliquot of cells was transferred to each well in the assay plate. Stocks of the test compounds and reference compounds were diluted to a concentration of […] in Assay Medium. Compounds were diluted 10-fold to give the following concentrations: 2×10EE-6 M, 2×10EE-7 M, 2×10EE-8 M; 2×10EE-9 M, 2×10EE-10 M, 2×10EE-11 M, 2×10EE-12 M and 2×10EE-13 M. For each compound a blank assay medium control was also included. A 50 μl aliquot of compound or blank was transferred from the dilution plate to the assay plate. Compounds were tested at the following final concentrations: 1×10EE-6 M, 1×10EE-7 M, 1×10EE-8 M; 1×10EE-9 M, 1×10EE-10 M, 1×10EE-11 M and 1×10EE-12 M and 1×10EE-13 M. The assay plate was incubated for 3 h in a 5% CO2 incubator at 37° C. The assay plate was removed from the incubator and allowed to stand at room temperature for 15 min. A 100 μl aliquot of steadylite plus reagent was added to each well of the assay plate (reagent is light sensitive). Each assay plate was covered with aluminum foil to protect it from light and shaken for 30 min at room temperature. Each assay plate was read in a Perkin Elmer TopCount NXT instrument. The data from the TopCount instrument was transferred to GraphPad Prism software. The software performed a non-linear regression (log(agonist) vs response-Variable slope (four parameter)). EC50 values were calculated by the software and reported in pM.

[2] = Assay (V): chemical stability assessment by RP-UPLC; type: physicochemical; details: 14 days at 37° C. in phosphate buffer (pH 7.3)
Experimental: Assay (V): Chemical Stability Assessment
The purpose of this assay is to assess the chemical stability of the GLP-1 derivatives of the present invention in aqueous solutions.
Chemical stability of GLP-1 derivatives may be investigated by RP-UPLC separation and UV detection. Lyophilized samples are dissolved in a 8 mM Phosphate buffer pH 8.6, followed by adjustment to pH 7.3 using HCl to a final concentration of 333 μM. Samples are incubated for 14 days at 5° C. and 37° C. followed by RP-UPLC analysis. Purity is defined as the area percentage of the main peak in relation to the total area of all integrated peaks in each chromatogram. Purity loss, also referred to herein as chemical degradation, after 14 days at 37° C. is determined as the difference in purity between the samples incubated at 5° C. and 37° C., divided by the purity of the sample after incubation for 14 days at 5° C.
RP-UPLC analysis is performed using a Waters BEH130 2.1 mm×150 mm, 1.7 μm column operated at 50° C. and a flow rate of 0.4 mL/min using a mobile phase system consisting of A: 0.05% TFA in MQ-water, and B: 0.05% TFA in Acetonitrile. UV-detection is performed at 215 nm. The typical gradient profile used for most of the samples is shown below.
For some individual derivatives eluting at substantially different retention times compared with the majority of derivatives, some adjustments to the gradient profile are made to better enable purity assessment comparison across samples.

EC50 [1] [pM] | Chemical stability: Chemical degradation over 14 days at 37° C. [2] [%] | Structure (SMILES)
8 | 2.2 | CC[C@H](C)[C@H](NC(=O)[C@H](Cc1ccccc1)NC(=O)[C@H](CCC(=O)O)NC(=O)[C@H](CCCNC(=N)N)NC(=O)[C@H](C)NC(=O)[C@H](C)NC(=O)[C@H](CCCNC(=N)N)NC(=O)[C@H](CCCNC(=N)N)NC(=O)[C@H](CCC(=O)O)NC(=O)[C@H](CC(C)C)NC(=O)[C@H](Cc1ccc(O)cc1)NC(=O)[C@H](CCCCN)NC(=O)[C@H](CO)NC(=O)[C@H](Cc1ccc(O)cc1)NC(=O)[C@H](CC(=O)O)NC(=O)[C@H](CO)NC(=O)[C@@H](NC(=O)[C@H](Cc1ccccc1)NC(=O)[C@@H](NC(=O)CNC(=O)[C@H](Cc1c[nH]cn1)NC(=O)C1(NC(=O)CCc2c[nH]cn2)CCC1)[C@@H](C)O)[C@@H](C)O)C(=O)N[C@@H](C)C(=O)N[C@@H](Cc1c[nH]c2ccccc12)C(=O)N[C@@H](CC(C)C)C(=O)N[C@@H](CC(C)C)C(=O)N[C@@H](CCCCN)C(=O)N[C@@H](CCCCNC(=O)CC[C@H](NC(=O)COCCOCCNC(=O)CC[C@H](NC(=O)COCCOCCNC(=O)CC[C@H](NC(=O)COCCOCCNC(=O)CC[C@H](NC(=O)CC[C@H](NC(=O)CCCCCCCCCCCCCCCCC(=O)O)C(=O)O)C(=O)O)C(=O)O)C(=O)O)C(=O)O)C(N)=O [Example 24, N^ε35-[(4S)-4-carboxy-4-[[2-[2-[2-[[(4S)-4-carboxy-4-[[2-[2-[2-[[(4S)-4-carboxy-4-[[2-[2-[2-[[(4S)-4-carboxy-4-[[(4S)-4-carboxy-4-(17-carboxyheptadecanoylamino)butanoyl]amino]butanoyl]amino]ethoxy]ethoxy]acetyl]amino]butanoyl]amino]ethoxy]ethoxy]acetyl]amino]butanoyl]amino]ethoxy]ethoxy]acetyl]amino]butanoyl]-[Imp7,Acb8,His9,Tyr16,Lys18,Arg22,Arg23,Arg26, Leu33, Lys35]-GLP-1-(7-35)-peptide amide] (Desaminohistidyl-[Ac4c]HGTFTSDYSKYLERRAAREFIAWLLKK([γGlu-AEEA-γGlu-AEEA-γGlu-AEEA-γGlu-γGlu-C18 diacid])-NH2)
3 | 1.6 | CC[C@H](C)[C@H](NC(=O)[C@H](Cc1ccccc1)NC(=O)[C@H](CCC(=O)O)NC(=O)[C@H](CCCNC(=N)N)NC(=O)[C@H](C)NC(=O)[C@H](C)NC(=O)[C@H](CCC(N)=O)NC(=O)[C@H](CCC(=O)O)NC(=O)[C@H](CCC(=O)O)NC(=O)[C@H](CC(C)C)NC(=O)[C@H](Cc1ccc(O)cc1)NC(=O)[C@H](CCCCN)NC(=O)[C@H](CO)NC(=O)[C@H](Cc1ccc(O)cc1)NC(=O)[C@H](CC(=O)O)NC(=O)[C@H](CO)NC(=O)[C@@H](NC(=O)[C@H](Cc1ccccc1)NC(=O)[C@@H](NC(=O)CNC(=O)[C@H](Cc1c[nH]cn1)NC(=O)C1(NC(=O)CCc2c[nH]cn2)CCC1)[C@@H](C)O)[C@@H](C)O)C(=O)N[C@@H](C)C(=O)N[C@@H](Cc1c[nH]c2ccccc12)C(=O)N[C@@H](CC(C)C)C(=O)N[C@@H](CC(C)C)C(=O)N[C@@H](CCCCN)C(=O)N[C@@H](CCCCNC(=O)CC[C@H](NC(=O)COCCOCCNC(=O)CC[C@H](NC(=O)COCCOCCNC(=O)CC[C@H](NC(=O)COCCOCCNC(=O)CC[C@H](NC(=O)CC[C@H](NC(=O)CCCCCCCCCCCCCCCCC(=O)O)C(=O)O)C(=O)O)C(=O)O)C(=O)O)C(=O)O)C(N)=O [Example 21, N^ε35-[(4S)-4-carboxy-4-[[2-[2-[2-[[(4S)-4-carboxy-4-[[2-[2-[2-[[(4S)-4-carboxy-4-[[2-[2-[2-[[(4S)-4-carboxy-4-[[(4S)-4-carboxy-4-(17-carboxyheptadecanoylamino)butanoyl]amino]butanoyl]amino]ethoxy]ethoxy]acetyl]amino]butanoyl]amino]ethoxy]ethoxy]acetyl]amino]butanoyl]amino]ethoxy]ethoxy]acetyl]amino]butanoyl]-[Imp7,Acb8,His9,Tyr16,Lys18,Glu22,Arg26,Leu33,Lys35]-GLP-1-(7-35)-peptide amide] (Desaminohistidyl-[Ac4c]HGTFTSDYSKYLEEQAAREFIAWLLKK([γGlu-AEEA-γGlu-AEEA-γGlu-AEEA-γGlu-γGlu-C18 diacid])-NH2)
